This is an account of results in BindingDB's records for patent US11912668 (Deciphera Pharmaceuticals, 2024).

Bounds are passed on as bounds.

One may read the IC50 as the midpoint of a concentration-inhibition curve. Lower therefore signals inhibition by little substance.

One assay deals with eIF-2-alpha kinase GCN2 (Homo sapiens, UniProt Q9P2K8). Nature of the assay: Biochemical Assay for GCN2. How it is done: Activity of GCN2 kinase was determined using a TR-FRET kinase activity assay (e.g. Riddle et al. Analytical Biochemistry (2006) 356(1) 108-116). Assays were conducted in 384-well plates (13 μL assay volume) using 2 nM GCN2 (Carna Biosciences), 130 nM GFP-EIf2α (Invitrogen), 0.2 mg/mL E. coli tRNA (sigma) and 1 mM ATP in kinase buffer (Invitrogen). Inhibition of GCN2 was measured by adding serial diluted test compound (final assay concentration of 0.5% DMSO) followed by a 3-hour incubation. Tb-peIF2α (pSer52) antibody (Invitrogen) (2 nM final assay concentration) in kinase buffer containing ETDA (final assay concentration of 20 mM) was added. After a 60 min incubation at room temperature, TR-FRET was monitored using an excitation wavelength of 340 nm and emission wavelengths of 490 nm and 520 nm. The emission ratio (520/490) at each compound concentration of was converted to percent inhibition using controls (i.e. reaction with no test compound and reaction with a known inhibitor) and IC50 values were calculated by fitting a four-parameter sigmoidal curve to the data using Prism (GraphPad software).

Assay [1] concerns the target T1, Eukaryotic translation initiation factor 2-alpha kinase 3 [563-1115] (Homo sapiens, UniProt Q9NZJ5).
T1 construct: 563-1115
T1 sequence (Q9NZJ5 whole entry): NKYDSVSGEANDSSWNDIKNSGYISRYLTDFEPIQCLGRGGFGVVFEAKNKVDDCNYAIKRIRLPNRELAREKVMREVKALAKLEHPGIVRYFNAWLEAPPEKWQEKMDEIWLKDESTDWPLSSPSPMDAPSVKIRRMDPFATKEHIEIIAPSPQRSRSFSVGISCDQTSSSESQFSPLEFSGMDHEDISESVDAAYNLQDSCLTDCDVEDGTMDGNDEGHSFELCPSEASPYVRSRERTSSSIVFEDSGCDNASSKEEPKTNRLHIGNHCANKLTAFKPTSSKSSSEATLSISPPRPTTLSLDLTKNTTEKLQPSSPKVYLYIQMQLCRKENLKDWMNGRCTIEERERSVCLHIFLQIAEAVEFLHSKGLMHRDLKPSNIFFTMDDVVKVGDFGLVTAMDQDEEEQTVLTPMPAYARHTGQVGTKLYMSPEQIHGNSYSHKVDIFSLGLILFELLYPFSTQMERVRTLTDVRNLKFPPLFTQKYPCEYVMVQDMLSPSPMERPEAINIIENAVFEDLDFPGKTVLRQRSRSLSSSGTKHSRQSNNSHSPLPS
Nature of the assay: Biochemical Assay for PERK. Here is the method:
Activity of PERK kinase was determined spectroscopically using a coupled pyruvate kinase/lactate dehydrogenase assay that continuously monitors the ATP hydrolysis-dependent oxidation of NADH (e.g., Schindler et al. Science (2000) 289: 1938-1942). Assays were conducted in 384-well plates (100 μL final volume) using 10 nM PERK (from Beryllium), 0.25 mg/mL Myelin Basic Protein substrate, 1.5 units pyruvate kinase, 2.1 units lactate dehydrogenase, 1 mM phosphoenol pyruvate, 0.28 mM NADH and 1 mM ATP in assay buffer (100 mM Tris, pH 7.5, 15 mM MgCl2, 0.5 mM DTT, 0.004% (w/v) BSA, and 0.004% Triton X-100). Inhibition of PERK was measured by adding serial diluted test compound (final assay concentration of 1% DMSO). A decrease in absorption at 340 nm was monitored continuously for 6 hours at 30° C. on a multi-mode microplate reader (BioTek). The reaction rate was calculated using the 2-3 h time frame. The reaction rate at each concentration of compound was converted to percent inhibition using controls (i.e. reaction with no test compound and reaction with a known inhibitor) and IC50 values were calculated using software routines in Prism (GraphPad software).

eIF-2-alpha kinase GCN2, sequence (Q9P2K8 whole entry): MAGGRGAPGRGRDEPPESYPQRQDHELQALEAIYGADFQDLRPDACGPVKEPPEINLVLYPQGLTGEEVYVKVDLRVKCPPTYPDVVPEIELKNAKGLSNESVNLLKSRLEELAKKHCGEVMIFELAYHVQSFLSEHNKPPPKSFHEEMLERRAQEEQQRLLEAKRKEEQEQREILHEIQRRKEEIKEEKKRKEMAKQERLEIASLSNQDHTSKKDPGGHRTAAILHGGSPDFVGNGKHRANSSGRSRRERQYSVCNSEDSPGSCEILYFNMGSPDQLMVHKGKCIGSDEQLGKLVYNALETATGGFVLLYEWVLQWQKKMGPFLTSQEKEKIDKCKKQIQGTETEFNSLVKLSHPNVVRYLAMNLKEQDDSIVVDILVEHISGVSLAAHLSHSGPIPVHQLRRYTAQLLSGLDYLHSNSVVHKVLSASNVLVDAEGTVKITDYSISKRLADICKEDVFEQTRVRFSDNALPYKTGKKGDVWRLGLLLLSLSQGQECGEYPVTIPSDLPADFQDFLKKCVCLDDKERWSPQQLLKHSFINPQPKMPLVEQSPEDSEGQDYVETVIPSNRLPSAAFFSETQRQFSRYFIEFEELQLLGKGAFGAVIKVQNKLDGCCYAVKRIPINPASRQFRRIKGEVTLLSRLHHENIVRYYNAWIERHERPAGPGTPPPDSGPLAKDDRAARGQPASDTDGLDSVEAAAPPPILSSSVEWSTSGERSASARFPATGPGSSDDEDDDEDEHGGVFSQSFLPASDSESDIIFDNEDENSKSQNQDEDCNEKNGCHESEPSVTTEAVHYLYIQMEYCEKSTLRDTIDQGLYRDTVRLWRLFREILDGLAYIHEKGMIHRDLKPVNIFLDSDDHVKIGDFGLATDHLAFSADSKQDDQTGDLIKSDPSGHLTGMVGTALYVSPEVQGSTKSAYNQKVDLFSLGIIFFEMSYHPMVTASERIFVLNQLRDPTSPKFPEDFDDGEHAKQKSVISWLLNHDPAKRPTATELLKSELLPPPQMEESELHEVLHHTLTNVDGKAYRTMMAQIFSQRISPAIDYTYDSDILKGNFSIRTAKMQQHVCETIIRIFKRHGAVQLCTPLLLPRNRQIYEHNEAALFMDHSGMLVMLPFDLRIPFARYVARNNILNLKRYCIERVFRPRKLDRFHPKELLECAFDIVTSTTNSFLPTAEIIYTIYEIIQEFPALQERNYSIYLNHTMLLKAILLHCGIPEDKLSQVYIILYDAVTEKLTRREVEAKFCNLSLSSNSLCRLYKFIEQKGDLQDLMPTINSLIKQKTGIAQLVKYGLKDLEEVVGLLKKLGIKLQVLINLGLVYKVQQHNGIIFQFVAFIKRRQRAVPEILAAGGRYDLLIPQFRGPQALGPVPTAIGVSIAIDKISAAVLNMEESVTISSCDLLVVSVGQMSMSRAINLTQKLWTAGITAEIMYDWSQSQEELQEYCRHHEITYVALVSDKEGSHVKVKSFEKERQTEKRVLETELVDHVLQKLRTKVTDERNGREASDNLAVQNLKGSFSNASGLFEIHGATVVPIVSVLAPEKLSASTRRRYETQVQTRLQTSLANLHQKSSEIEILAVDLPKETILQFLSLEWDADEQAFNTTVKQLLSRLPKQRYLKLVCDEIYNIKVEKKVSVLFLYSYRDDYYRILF

With `CNc1ncc2cc(-c3cc(F)cc(NS(=O)(=O)c4cc(Cl)cnc4OC)c3)c(C)nc2n1` [US11912668, Example 65], at eIF-2-alpha kinase GCN2, the IC50 was less than 100 nM. For the compound `CNc1cc2nc(N)c(-c3cccc(NS(=O)(=O)c4cc(Cl)cc(CO)c4Cl)c3F)cc2cn1` [US11912668, Example 171], the IC50 (against eIF-2-alpha kinase GCN2; in assay [1]) was less than 100 nM each time.

Consider `Cc1nc2cc(N)ncc2cc1-c1cccc(NS(=O)(=O)c2cc(Cl)cc(CO)c2Cl)c1F` [US11912668, Example 174], for which the half-maximal inhibitory concentration (IC50) (against eIF-2-alpha kinase GCN2; in assay [1]) was less than 100 nM each time.
